# Experiments:
# [1] = tested on: soft tissue sarcomas (STS); conditions: across all histological sub-types of STS; cited from earlier work
# [2] = tested on: osteosarcoma xenotransplants; experiment: Osteosarcoma xenotransplant models, ADC (diffusion MRI) and tumor response; assay type: in vivo, mouse; conditions: for anti-tumor response: osteosarcoma xenotransplants; for shift of ADC histograms: within 48 hr following treatment
# Source text: Combined MRI and histology image analyses were used to examine effects of dasatinib+Tcn in a Ewings sarcoma model; and the response to a novel Wee-1 checkpoint inhibitor, MK1775, alone and in combination with gemcitabine in osteosarcoma xenotransplants [Kreahling J M, et al. Mol Cancer Ther. 2012 11(1):174-82; Kreahling J M, et al. PloS one. 2013 8(3):e57523]. In the Ewing's model, the pre-therapy spin-echo T2 and post-therapy response of ADC were compared to tumor volume changes.
# In the osteosarcoma xenotransplant models, the change in ADC was measured following treatment with gemcitabine and the wee-1 inhibitor MK-1775, alone and in combination. […] The change in ADC was highly correlated with tumor growth rate response. Also, the shapes of the histograms changed with response, going from Gaussian to a log-normal distributions, with increased skewness.
# At a deeper level of analysis, the ADC maps were analyzed for image entropy, which is calculated as the randomness of a 3×3 pixel matrix surrounding the pixel under test (P-U-T).
# [3] = tested on: orthotopically implanted Hs766t PDAC cells; experiment: DCE-MRI/diffusion MRI in orthotopically implanted Hs766t PDAC; assay type: in vivo; conditions: orthotopic Hs766t
# Source text: (§1) In a parallel study, DCE-MRI and Diffusion MRI were investigated as response biomarkers to TH-302 in flank implanted MiaPaCa2 pancreatic adenocarcinoma (PDAC) models. […] 2012 30(7):1002-9]. In a follow-on study, orthotopically implanted Hs766t, MiaPaCa2 and Su.86.86 PDAC cells were used, which have differential sensitivities to TH-302 as monotherapy.
# [4] = tested on: orthotopically implanted MiaPaCa2 PDAC cells; experiment: DCE-MRI/diffusion MRI in orthotopically implanted MiaPaCa2 PDAC; assay type: in vivo; conditions: orthotopic MiaPaCa2
# Source text: as §1
# [5] = tested on: orthotopically implanted Su.86.86 PDAC cells; experiment: DCE-MRI/diffusion MRI in orthotopically implanted Su.86.86 PDAC; assay type: in vivo; conditions: orthotopic Su.86.86
# Source text: as §1
# [6] = tested on: flank implanted MiaPaCa2 pancreatic adenocarcinoma (PDAC); conditions: cited from earlier work
# [7] = based on phase I data; cited from earlier work
# [8] = tested on: regions of profound hypoxia; conditions: cited from earlier work
# [9] = tested on: tumors in KPC mice; conditions: KPC (KrasG12D; p53R172H; Pdx1-Cre) GEMM; cited from earlier work
smiles,measurement,setting,value
"COc1cccc2c1C(=O)c1c(O)c3c(c(O)c1C2=O)C[C@@](O)(C(=O)CO)C[C@@H]3O[C@H]1C[C@H](N)[C@H](O)[C@H](C)O1 [DOX, doxorubicin]",response rate,[1],25-40%
C=CCn1c(=O)c2cnc(Nc3ccc(N4CCN(C)CC4)cc3)nc2n1-c1cccc(C(C)(C)O)n1 [MK-1775],anti-tumor response,[2],non-responsive
same,anti-tumor response,[2]; listed as MK1775,did not
same,shift of ADC histograms,[2],not
Cn1c(COP(=O)(NCCBr)NCCBr)cnc1[N+](=O)[O-] [TH-302],Ktrans in response to treatment,[3],decreases
same,mean ADC,[3],no changes
same,sensitivity as monotherapy,[3],responsive
same,Ktrans in response to treatment,[4],decreases
same,mean ADC,[4],no changes
same,sensitivity as monotherapy,[4],responsive
same,Ktrans in response to treatment,[5],not
same,mean ADC,[5],no changes
same,sensitivity as monotherapy,[5],resistant
same,ADC (diffusion MRI),[6]; at any time point,no differences
same,Ktrans (DCE-MRI),"[6]; initial change, strongly correlated with tumor control",drop
same,tolerability,[7],well-tolerated
same,pO2 at which the warhead is released,[8],< 10 mm Hg
Nc1ccn([C@@H]2O[C@H](CO)[C@@H](O)C2(F)F)c(=O)n1 [gemcitabine],change in average ADC-entropy values from pre-treatment,[2]; compared to controls (p=0.022) and MK1775 (p=0.023),statistically larger variations in ADC values
same,anti-tumor response,[2],robust anti-tumor response
same,anti-tumor response,[2]; listed as Gem,responded to therapy
same,shift of ADC histograms,[2],shifted to the right
same,sensitivity of tumors,[9],generally resistant

# Source: patent US10827945B2, “Radiologically identified tumor habitats” (H. LEE MOFFITT CANCER CENTER AND RESEARCH INSTITUTE, INC., priority 2014, dated 2020)
